Measured values taken from patent US11998610B2, “Conjugates and methods of using the same” (Flagship Pioneering Innovations V, Inc., priority 2018, dated 2024).
Non-standard residues stand in square brackets, D forms with d. Residues, ends and D or L forms follow the SMILES beside them. *: point of attachment. Butyryl = CCCC(=O)*

Tests used:
E. coli BL21(DE3) = assay: Cell-based assay with ClbP with LCMS, ClbP negative strain; details: 10 μM compound, 37° C., 20 h
Procedure: (§1) This example is representative of the methods described in Example 97. ClbP was tested for its ability to activate compounds. […] Each of these three strains was struck out onto an appropriate solid media such as LB agar or BHI agar. The bacteria were then grown aerobically overnight at 37° C.
(§2) A single colony was isolated from the plate and inoculated into 10 mL LB. The liquid cultures were grown overnight aerobically at 37° C. with rocking on a nutator.
(§3) The saturated E. coli cultures were transferred into a biosafety cabinet. 5 μL of each culture was inoculated into fresh LB broth (200 μL total, 1:40 (v/v) dilution of the overnight culture), and the tested compound was added to a final concentration of 10 μM. To establish the native stability of the compound in media alone, the compound was also added to uninoculated media at a final concentration of 10 μM. Each compound was tested in duplicate with each strain or the media-alone incubation. The plate was sealed and incubated aerobically on a nutator at 37° C. for 20 h.
(§4) After 20 h, the reactions were stopped by addition of 200 μL acetonitrile. The contents of each well were mixed, and then the plate was centrifuged (4,000 rpm, 10 min). The plate was diluted serially to a final dilution of 1:100 first with Acetonitrile (10× dilution) and then with (4:1) Mobile Phase A-20 mM ammonium formate+water:Mobile Phase B-Isopropanol:Methanol:Water (4:4:2)+20 mM ammonium formate (10× dilution).
(§5) The amount of each remaining parent compound in each incubation was quantified by LC-MS analysis, with multiple-reaction monitoring targeting transitions specific to each parent compound.
(§6) The amount of compound present in the media-alone condition was normalized to 100%. The amount of parent compound present in the reaction with the ClbP-encoding E. coli (E. coli CFT073 ATCC 700928 and/or E. coli Nissle 1917) was compared to the amount present in the media-alone and expressed as a percent. Likewise, the amount of parent compound present in the reaction with the negative control E. coli BL21(DE3) was compared to the amount present in the media-alone and expressed as a percent.
(§7) In an ideal case, the amount of residual starting material in the reaction(s) with ClbP-encoding E. coli was <25% of the amount in the E. coli BL21(DE3) and media-alone conditions. In an acceptable case, the amount of residual starting material in the reaction(s) with ClbP-encoding E. coli was 25-75% of the amount in the E. coli BL21(DE3) and media-alone conditions. In a non-preferred case, the amount of residual starting material in the reaction(s) with ClbP-encoding E. coli was >75% of the amount in the E. coli BL21(DE3) and media-alone conditions.

[1] = In vitro Colonic Material Stability Assay; type: in vitro ADME; details: for Assay 3 (% Remaining at 24 h): colonic material slurry, anaerobic, 1 or 10 μM
Procedure: Assay 3 In vitro Colonic Material Stability Assay. This assay was used to assess the stability of an acylated active agent in a large intestine. All experiments were performed in an anaerobic chamber containing 90% nitrogen, 5% hydrogen and 5% carbon dioxide. Colonic material was resuspended as a slurry (15% w/v final concentration) in pre-reduced, anaerobically sterilized dilution blanks (Anaerobe Systems AS-908). The colonic material was then inoculated into 96 well plates containing YCFAC media (Anaerobe Systems AS-680) or other suitable media (6.7 μL slurry into 1 mL total media). Compounds or groups of compounds were added to each individual well to reach a final analyte concentration of 1 or 10 μM, and the material was mixed by pipetting. Sample was removed after set timepoints (0, 120, 240, 480, 1440, 2880 minutes after initiation of the assay), quenched with acetonitrile containing internal standard, and analyzed by LC/MS.

[2] = Stability of conjugates in Simulated Intestinal Fluid (SIF); type: in vitro ADME; details: simulated intestinal fluid pH 6.7 with pancreatin, 1 μM, 37° C.
Procedure: Assay 2. Stability of conjugates in Simulated Intestinal Fluid (SIF). This assay was used to assess the stability of a conjugate in a small intestine. Phosphate buffer was prepared by dissolving 0.42 g of sodium hydroxide pellets and 3.95 g of monobasic sodium phosphate monohydrate and 6.19 g of sodium chloride in ultrapure water (MilliQ®, Millipore Sigma, Darmstadt, Germany). The pH was adjusted to 6.7 using aq. HCl and aq. NaOH, as necessary, and the solution was diluted with ultrapure water to produce 1 L of the pH 6.7 buffer. 112 mg FaSSIF powder (Biorelevant™, London, UK) was dissolved in 50 mL of the pH 6.7 buffer. 2 to 3 mL of the resulting solution were then added to 500 mg pancreatin (Millipore Sigma, Darmstadt, Germany). The resulting mixture was agitated by finger tapping the vessel containing the mixture until milky suspension formed. At this time, the remainder of the 50 mL FaSSiF/pH 6.7 buffer solution was added. The resulting suspension was flipped upside down 10 times to produce SIF, which was used fresh. Test compounds were dissolved in DMSO stock to 1 mM. An aliquot of the DMSO stock solution was removed and diluted in the SIF media in 15 mL falcon tubes to produce a mixture with a tested compound concentration of 1 μM. A 1 mL aliquot was immediately removed and diluted once with 1 volume of acetonitrile for T0 timepoint. The mixture was sealed and agitated at 37° C. in an incubator. Aliquots (1 mL) were removed at regular intervals and immediately quenched by the addition of 1 volume of acetonitrile. The resulting samples were analyzed by LC/MS to determine degradation rates

[3] = test system: E. coli CFT073 ATCC 700928 and/or E. coli Nissle 1917; assay: Cell-based assay with ClbP with LCMS, ClbP positive strain; details: ClbP-encoding E. coli, 10 μM compound, 37° C., 20 h
Procedure: as §1, §2, §3, §4, §5, §6, §7

[4] = Stability of conjugates in Simulated Gastric Fluid (SGF); type: in vitro ADME; details: simulated gastric fluid pH 1.6 with pepsin, 1 μM, 37° C.
Procedure: Assay 1. Stability of conjugates in Simulated Gastric Fluid (SGF). This assay was used to assess the stability of a conjugate in a stomach. Medium was prepared by dissolving 2 g of sodium chloride in 0.6 L in ultrapure water (MilliQ®, Millipore Sigma, Darmstadt, Germany). The pH was adjusted to 1.6 with 1N hydrochloric acid, and the volume was then adjusted to 1 L with purified water. 60 mg FaSSIF powder (Biorelevant™, London, UK) were dissolved in 500 mL buffer (above). Pepsin was added (0.1 mg/mL) (Millipore Sigma, Darmstadt, Germany), and the solution was stirred. The resulting SGF media were used fresh for each experiment. Test compounds were dissolved in DMSO stock to 1 mM. An aliquot of the DMSO stock solution was removed and diluted in the SGF Media in 15 mL falcon tubes to generate a total compound concentration of 1 μM. A 1 mL aliquot was immediately removed and diluted once with 1 volume of acetonitrile for T0 timepoint. The mixture was sealed and mixed at 37° C. in an incubator. Aliquots (1 mL) were removed at regular intervals and immediately quenched by the addition of 1 volume of acetonitrile. The resulting samples were analyzed by LC/MS to determine degradation rates in SGF.

| Structure (SMILES) | % Remaining in ClbP Negative Relative to Media-Only (E. coli BL21(DE3)) | Assay 3 (% Remaining at 24 h) [1] | Selective delivery to the colon (conclusion from Table 2) ([1]; from SGF, SIF and colonic material stability) | Assay 2 (SIF) (% @ Remaining 4 hours) [2] | % Remaining in ClbP Positve Relative to Media-Only [3] | Assay 1 (SGF) (% Remaining @ 1 hours) [4] |
| --- | --- | --- | --- | --- | --- | --- |
| CCCC(=O)N[C@H](CC(N)=O)C(=O)N[C@@H](C)C(=O)OC [Example 12, Methyl butyryl-D-asparaginyl-L-alaninate] (Butyryl-[dN]-Ala-OMe) | + (between 25-75% compound remaining in the 20 μM WT ClbP reaction relative to the no-enzyme control) | A (<25% of the tested compound remaining) | can be selectively delivered to the colon | C (>75% of the tested compound remaining) |  |  |
| CCCC(=O)N[C@H](CC(N)=O)C(=O)N[C@@H](C)CCC(=O)Oc1ccccc1 [Example 25, Phenyl (S)-4-((R)-4-amino-2-butyramido-4-oxobutanamido)pentanoate] | − (>75% compound remaining in the 20 μM WT ClbP reaction relative to the no-enzyme control) | B (25-75% of the tested compound remaining) |  |  | + (between 25-75% compound remaining in the 20 μM WT ClbP reaction relative to the no-enzyme control) | C (>75% of the tested compound remaining) |
| CCCCCCCCCCCCCC(=O)N[C@H](CC(N)=O)C(=O)NCCC(C)(C)C(=O)OC [Example 34, Methyl (R)-4-(4-amino-4-oxo-2-tetradecanamidobutanamido)-2,2-dimethylbutanoate] | − (>75% compound remaining in the 20 μM WT ClbP reaction relative to the no-enzyme control) | C (>75% of the tested compound remaining) |  |  | + (between 25-75% compound remaining in the 20 μM WT ClbP reaction relative to the no-enzyme control) | C (>75% of the tested compound remaining) |
| CCCCCCCC(=O)N[C@H](CC(N)=O)C(=O)N[C@@H](C)CNC(=O)OC [Example 45, Methyl ((S)-2-((R)-4-amino-2-octanamido-4-oxobutanamido)propyl)carbamate] | − (>75% compound remaining in the 20 μM WT ClbP reaction relative to the no-enzyme control) | B (25-75% of the tested compound remaining) |  |  | + (between 25-75% compound remaining in the 20 μM WT ClbP reaction relative to the no-enzyme control) |  |
| CCCCCCOC(=O)N[C@H](CC(N)=O)C(=O)N[C@@H](C)C(=O)OC [Example 52, Methyl ((hexyloxy)carbonyl)-D-asparaginyl-L-alaninate] | ++ (<25% compound remaining in the 20 μM WT ClbP reaction relative to the control) | B (25-75% of the tested compound remaining) |  |  | ++ (<25% compound remaining in the 20 μM WT ClbP reaction relative to the control) |  |
| CCCCCCCC(=O)N[C@H](CC(N)=O)C(=O)NCCNC(=O)n1cc(F)c(=O)[nH]c1=O [Example 55, (R)—N1-(2-(5-fluoro-2,4-dioxo-1,2,3,4-tetrahydropyrimidine-1-carboxamido)ethyl)-2-octanamidosuccinamide] |  | A (<25% of the tested compound remaining) |  | A (<25% of the tested compound remaining) |  | C (>75% of the tested compound remaining) |
| CCCCCCCCCCCCOC(=O)N[C@H](CC(N)=O)C(=O)N[C@@H](C)C(=O)OC [Example 59, Methyl ((dodecyloxy)carbonyl)-D-asparaginyl-L-alaninate] | ++ (<25% compound remaining in the 20 μM WT ClbP reaction relative to the control) | C (>75% of the tested compound remaining) |  |  | ++ (<25% compound remaining in the 20 μM WT ClbP reaction relative to the control) |  |
| CCCCCCCCCCCCNC(=O)N[C@H](CC(N)=O)C(=O)N[C@@H](C)C(=O)OC [Example 60, Methyl (dodecylcarbamoyl)-D-asparaginyl-L-alaninate] | + (between 25-75% compound remaining in the 20 μM WT ClbP reaction relative to the no-enzyme control) | C (>75% of the tested compound remaining) |  |  | + (between 25-75% compound remaining in the 20 μM WT ClbP reaction relative to the no-enzyme control) |  |
| CCCCCCCC(=O)N[C@H](CC(N)=O)C(=O)NCCCC(=O)Oc1ccc2c(C)cc(=O)oc2c1 [Example 67, 4-methyl-2-oxo-2H-chromen-7-yl (R)-4-(4-amino-2-octanamido-4-oxobutanamido)butanoate] |  |  |  | A (<25% of the tested compound remaining) |  | C (>75% of the tested compound remaining) |
| CCCCCCCC(=O)N[C@H](CC(N)=O)C(=O)NCCNC(=O)Oc1ccc2c(C)cc(=O)oc2c1 [Example 69, 4-methyl-2-oxo-2H-chromen-7-yl (R)-(2-(4-amino-2-octanamido-4-oxobutanamido)ethyl)carbamate] |  | A (<25% of the tested compound remaining) |  | A (<25% of the tested compound remaining) |  | C (>75% of the tested compound remaining) |
